In patent US20160297830A1, “NOVEL COMPOUNDS USEFUL FOR THE TREATMENT OF BACTERIAL INFECTIOUS DISEASES” (GALAPAGOS NV, priority 2013, published 2016):
In brackets after ≈: the same amount, converted by molar mass. Where two headings read alike, the source gives them in different places.

How the values were obtained:
[1] = tested on: H. influenza Hi10 clinical strain; assay: organism not typed; format: cell-based; conditions: read-out: MIC Hi10
[2] = tested on: S. aureus Sa2 clinical strain NCIMB 41953, MRSA; assay: microbe, parasite or virus in culture; format: cell-based; conditions: for MIC: Staphylococcus aureus, read-out: MIC Sa2; for MIC Sa2: S. aureus Sa2 clinical strain, MRSA, Erythromycin Resistant, Fluoroquinolone resistant
[3] = tested on: E. coli Ec113 efflux pump KO; assay: microbe, parasite or virus in culture; format: cell-based; conditions: for MIC: Escherichia coli, read-out: MIC Ec113 efflux pump KO; for MIC Ec113 efflux pump KO: E. coli Ec113 efflux pump KO
E. coli Ec1 ATCC 25922 = assay: Antibacterial activity assay (MIC), E. coli Ec1; format: cell-based; conditions: for MIC: Escherichia coli
[4] = tested on: E. coli Ec50 efflux pump KO; assay: microbe, parasite or virus in culture; format: cell-based; conditions: for MIC: Escherichia coli, read-out: MIC Ec50 efflux pump KO; for MIC Ec50 efflux pump KO: E. coli Ec50 efflux pump KO
[5] = tested on: S. aureus Sa26 ATCC 25923; assay: Antibacterial activity assay (MIC), S. aureus Sa26; format: cell-based; conditions: for MIC: Staphylococcus aureus
S. aureus Sa4 NCTC 6571 = assay: Antibacterial activity assay (MIC), S. aureus Sa4; format: cell-based; conditions: for MIC: Staphylococcus aureus
[6] = tested on: H. influenza Hi47 clinical strain, Ampicillin Resistant; assay: organism not typed; format: cell-based; conditions: for MIC: read-out: MIC Hi47; for MIC Hi47: H. influenza Hi47 clinical strain, Ampicillin Resistant
[7] = tested on: H. influenza Hi3 ATCC 31517; assay: organism not typed; format: cell-based; conditions: read-out: MIC Hi3
S. aureus Sa1 ATCC 13709 = assay: microbe, parasite or virus in culture; format: cell-based; conditions: for MIC: Staphylococcus aureus
[8] = tested on: H. influenza Hi106 ATCC 51907; assay: organism not typed; format: cell-based; conditions: read-out: MIC Hi106
[9] = tested on: Methicillin Resistant S. aureus (MRSA); assay: Neutropenic mouse thigh infection model; conditions: Thigh Sa
[10] = molecular target: DNA Polymerase IIIα (DnaE) from Staphylococcus aureus (Staphylococcus aureus, UniProt Q6GG04); assay: biochemical
DNA Polymerase IIIα (DnaE) from Staphylococcus aureus, sequence (Q6GG04 1-1022): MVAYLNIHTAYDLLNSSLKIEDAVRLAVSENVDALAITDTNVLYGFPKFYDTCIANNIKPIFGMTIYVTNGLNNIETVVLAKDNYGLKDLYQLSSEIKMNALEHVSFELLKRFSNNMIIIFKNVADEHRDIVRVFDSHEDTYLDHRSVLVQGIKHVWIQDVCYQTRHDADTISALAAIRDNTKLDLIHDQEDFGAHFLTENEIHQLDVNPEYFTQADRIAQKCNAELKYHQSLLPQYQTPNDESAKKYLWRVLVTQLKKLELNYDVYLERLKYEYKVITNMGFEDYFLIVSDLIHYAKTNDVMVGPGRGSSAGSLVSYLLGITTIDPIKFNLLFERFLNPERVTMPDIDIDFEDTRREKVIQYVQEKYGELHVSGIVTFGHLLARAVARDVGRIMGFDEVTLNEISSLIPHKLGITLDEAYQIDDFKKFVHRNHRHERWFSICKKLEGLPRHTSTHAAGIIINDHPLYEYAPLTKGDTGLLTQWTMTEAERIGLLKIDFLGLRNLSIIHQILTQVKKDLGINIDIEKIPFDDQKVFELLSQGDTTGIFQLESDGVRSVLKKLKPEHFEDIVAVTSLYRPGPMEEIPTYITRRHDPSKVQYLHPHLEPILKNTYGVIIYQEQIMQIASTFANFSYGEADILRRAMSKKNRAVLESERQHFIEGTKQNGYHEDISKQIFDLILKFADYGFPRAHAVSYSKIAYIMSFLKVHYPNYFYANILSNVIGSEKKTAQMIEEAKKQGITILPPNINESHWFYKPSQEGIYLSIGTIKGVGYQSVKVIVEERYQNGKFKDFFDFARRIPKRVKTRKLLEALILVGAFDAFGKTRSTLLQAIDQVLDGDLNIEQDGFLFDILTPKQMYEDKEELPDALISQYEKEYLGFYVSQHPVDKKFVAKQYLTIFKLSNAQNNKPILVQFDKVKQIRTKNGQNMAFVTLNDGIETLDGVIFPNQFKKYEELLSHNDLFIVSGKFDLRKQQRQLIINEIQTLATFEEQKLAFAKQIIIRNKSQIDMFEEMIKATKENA

[11] = ATCC25923, read-out: MIC Sa26 + 10% SH
[12] = ATCC25923, read-out: MIC Sa26 + 50% SH
[13] = E. coli Ec1 ATCC 25922, sensitive strain
[14] = S. aureus Sa26 ATCC 25923, sensitive strain, Mueller-Hinton Broth, 37° C.
[15] = S. aureus Sa4 NCTC 6571, sensitive strain
[16] = S. aureus Sa1 ATCC 13709, sensitive strain, Mueller-Hinton Broth, 37° C.
[17] = ATCC25922, E. coli Ec1 ATCC 25922, sensitive strain, read-out: MIC Ec1
[18] = ATCC25923, read-out: MIC Sa26 + 10% SH, S. aureus Sa26 + 10% SH
[19] = ATCC25923, read-out: MIC Sa26 + 50% SH, S. aureus Sa26 + 50% SH
[20] = ATCC25923, S. aureus Sa26 ATCC 25923, sensitive strain, Mueller-Hinton Broth, 37° C., read-out: MIC Sa26
[21] = NCTC6571, S. aureus Sa4 NCTC 6571, sensitive strain, read-out: MIC Sa4
[22] = ATCC13709, S. aureus Sa1 ATCC 13709, sensitive strain, Mueller-Hinton Broth, 37° C., read-out: MIC Sa1
[23] = Study 5, 50 mg/kg SC BID, sample time 24 h PI
[24] = Study 6, 25 mg/kg PO BID, sample time 24 h PI
[25] = Study 7, 15 mg/kg PO BID, sample time 24 h PI
[26] = Study 7, 50 mg/kg PO BID, sample time 24 h PI
[27] = Study 8, 50 mg/kg PO QD, sample time 48 h PI
[28] = Study 9, 50 mg/kg PO BID, sample time 24 h PI
[29] = Study 1, 50 mg/kg SC BID, sample time 7 h PI
[30] = Study 2, 50 mg/kg SC BID, sample time 7 h PI
[31] = Study 3, 50 mg/kg SC BID, sample time 7 h PI
[32] = Study 4, 50 mg/kg SC BID, sample time 24 h PI
[33] = Study 6, 50 mg/kg SC BID, sample time 24 h PI
[34] = Study 7, 50 mg/kg SC BID, sample time 24 h PI
[35] = Study 8, 50 mg/kg SC QD, sample time 48 h PI
[36] = Study 9, 50 mg/kg SC BID, sample time 24 h PI

COC[C@@H]1[C@@H](O)[C@@H]2[C@H]3C=C[C@@H]4[C@@H](COC)C(=O)O[C@H]([C@H](O)COC)[C@H](C)/C=C(\C)[C@@]24O[C@H]3[C@@H]1OC(=O)c1cc(Cl)c(Cl)[nH]1 [Compound 31, 8-O-4,5-Dichloro-1H-pyrrole-2′-carbonylbranimycin]
MIC [1]: 16 mg/L (≈ 24.8 µM)
MIC [2]: 64 mg/L (≈ 99.3 µM)
MIC [3]: 32 mg/L (≈ 49.6 µM)
MIC (E. coli Ec1 ATCC 25922; ATCC25922, read-out: MIC Ec1): > 64 mg/L
MIC [4]: > 64 mg/L
MIC ([5]; ATCC25923, read-out: MIC Sa26): > 64 mg/L
MIC [5, 11]: > 64 mg/L
MIC [5, 12]: > 64 mg/L
MIC (S. aureus Sa4 NCTC 6571; NCTC6571, read-out: MIC Sa4): 64 mg/L (≈ 99.3 µM)
MIC [6]: 32 mg/L (≈ 49.6 µM)
MIC [7]: > 64 mg/L
MIC (S. aureus Sa1 ATCC 13709; ATCC13709, read-out: MIC Sa1): > 64 mg/L
MIC [8]: 32 mg/L (≈ 49.6 µM)

8-O-5-Bromo-4-Chloro-1H-pyrrole-2′-carbonylbranimycin [Compound 33]
MIC Sa2 [2]: 64 mg/L
MIC Ec113 efflux pump KO [3]: 6 mg/L
MIC Ec1 (E. coli Ec1 ATCC 25922; [13]): >64 mg/L
MIC Ec50 efflux pump KO [4]: >64 mg/L
MIC Sa26 + 10% SH ([5]; S. aureus Sa26 + 10% SH): >64 mg/L
MIC Sa26 + 50% SH ([5]; S. aureus Sa26 + 50% SH): >64 mg/L
MIC Sa26 [5, 14]: >64 mg/L
MIC Sa4 (S. aureus Sa4 NCTC 6571; [15]): 64 mg/L
MIC Hi47 [6]: >64 mg/L
MIC Sa1 (S. aureus Sa1 ATCC 13709; [16]): >64 mg/L

COCC(=NOC(C)=O)[C@H]1OC(=O)[C@H](COC)[C@H]2C=C[C@H]3[C@H]4O[C@]2(/C(C)=C/[C@H]1C)[C@@H]3[C@H](O)[C@@H](COC)[C@H]4OC(=O)c1cc(Cl)c[nH]1 [Compound 42, 18-Acetylimino-18-deoxy-8-O-4-Chloro-1H-pyrrole-2′-carbonylbranimycin]
MIC [1]: > 64 mg/L
MIC [2]: 2 mg/L (≈ 3.01 µM)
MIC [3]: 4 mg/L (≈ 6.01 µM)
MIC (E. coli Ec1 ATCC 25922; [17]): > 64 mg/L
MIC [4]: 64 mg/L (≈ 96.2 µM)
MIC [5, 18]: 16 mg/L
MIC [5, 19]: 32 mg/L
MIC [5, 20]: 4 mg/L (≈ 6.01 µM)
MIC (S. aureus Sa4 NCTC 6571; [21]): 2 mg/L (≈ 3.01 µM)
MIC [6]: > 64 mg/L
MIC [7]: > 64 mg/L
MIC (S. aureus Sa1 ATCC 13709; [22]): 2 mg/L (≈ 3.01 µM)
MIC [8]: > 64 mg/L

COC[C@@H](O)[C@H]1OC(=O)[C@H](COC)[C@H]2C=C[C@H]3[C@H]4O[C@]2(/C(C)=C/[C@H]1C)[C@@H]3[C@H](O)[C@@H](C)[C@H]4OC(=O)c1cc(Cl)c[nH]1 [Compound 30, 8-O-4-Chloro-1H-pyrrole-2′-carbonylbaleomycin]
MIC [1]: 64 mg/L (≈ 110 µM)
MIC [2]: 8 mg/L (≈ 13.8 µM)
MIC [3]: 0.5 mg/L (≈ 0.862 µM)
MIC (E. coli Ec1 ATCC 25922; ATCC25922, read-out: MIC Ec1): > 64 mg/L
MIC [4]: 16 mg/L (≈ 27.6 µM)
MIC ([5]; ATCC25923, read-out: MIC Sa26): 16 mg/L (≈ 27.6 µM)
MIC [5, 11]: 32 mg/L
MIC [5, 12]: 64 mg/L
MIC (S. aureus Sa4 NCTC 6571; NCTC6571, read-out: MIC Sa4): 16 mg/L (≈ 27.6 µM)
MIC [6]: 64 mg/L (≈ 110 µM)
MIC [7]: > 64 mg/L
MIC (S. aureus Sa1 ATCC 13709; ATCC13709, read-out: MIC Sa1): 16 mg/L (≈ 27.6 µM)
MIC [8]: > 64 mg/L

COC[C@@H]1[C@@H](O)[C@@H]2[C@H]3C=C[C@@H]4[C@@H](COC)C(=O)O[C@H]([C@H](O)COC)[C@H](C)/C=C(\C)[C@@]24O[C@H]3[C@@H]1OC(=O)c1cc(F)c(F)[nH]1 [Compound 38, 8-O-4,5-Difluoro-1H-pyrrole-2′-carbonylbranimycin]
MIC [1]: > 64 mg/L
MIC [2]: 32 mg/L (≈ 52.3 µM)
MIC [3]: 8 mg/L (≈ 13.1 µM)
MIC (E. coli Ec1 ATCC 25922; [17]): > 64 mg/L
MIC [4]: > 64 mg/L
MIC [5, 18]: > 64 mg/L
MIC [5, 19]: 64 mg/L
MIC [5, 20]: 64 mg/L (≈ 105 µM)
MIC (S. aureus Sa4 NCTC 6571; [21]): 16 mg/L (≈ 26.2 µM)
MIC [6]: > 64 mg/L
MIC [7]: > 64 mg/L
MIC (S. aureus Sa1 ATCC 13709; [22]): 32 mg/L (≈ 52.3 µM)
MIC [8]: > 64 mg/L

CC(=O)NC[C@H]1CN(c2ccc(N3CCOCC3)c(F)c2)C(=O)O1 [Linezolid]
Log reduction vs. untreated ([9]; Study 5, 50 mg/kg PO BID, sample time 24 h PI): −4.07
Active [9, 23]: Y
Active [9, 24]: Y
Log reduction vs. untreated [9, 24]: −4.54
Log reduction vs. untreated ([9]; Study 6, 50 mg/kg PO BID, sample time 24 h PI): −3.49
Active [9, 25]: Y
Log reduction vs. untreated [9, 25]: −2.98
Active [9, 26]: Y
Log reduction vs. untreated [9, 26]: −5.13
Active [9, 27]: Y
Log reduction vs. untreated [9, 27]: −2.78
Active [9, 28]: Y
Log reduction vs. untreated [9, 28]: −4.01

8-O-4-Bromo-5-Chloro-1H-pyrrole-2′-carbonylbranimycin [Compound 35]
MIC Sa2 [2]: 64 mg/L
MIC Ec113 efflux pump KO [3]: 64 mg/L
MIC Ec1 (E. coli Ec1 ATCC 25922; [13]): >64 mg/L
MIC Ec50 efflux pump KO [4]: >64 mg/L
MIC Sa26 + 10% SH ([5]; S. aureus Sa26 + 10% SH): >64 mg/L
MIC Sa26 + 50% SH ([5]; S. aureus Sa26 + 50% SH): >64 mg/L
MIC Sa26 [5, 14]: >64 mg/L
MIC Sa4 (S. aureus Sa4 NCTC 6571; [15]): 64 mg/L
MIC Hi47 [6]: >64 mg/L
IC50 semiquantitative scoring, S. aureus [10]: ** (key: ***: 0.001-1 μg/mL; **: 1.0-10 μg/mL; *: >10 μg/mL)
MIC Sa1 (S. aureus Sa1 ATCC 13709; [16]): >64 mg/L

O=C(O)c1cn(C2CC2)c2cc(N3CCNCC3)c(F)cc2c1=O [Ciprofloxacin]
Active [9, 29]: N
Log reduction vs. untreated [9, 29]: −1.27
Active [9, 30]: N
Log reduction vs. untreated [9, 30]: −1.07
Active [9, 31]: N
Log reduction vs. untreated [9, 31]: 0.22
Active [9, 32]: N
Log reduction vs. untreated [9, 32]: −0.05
Active [9, 23]: N
Log reduction vs. untreated [9, 23]: −0.27
Active [9, 33]: N
Log reduction vs. untreated [9, 33]: −0.26
Active [9, 34]: N
Log reduction vs. untreated [9, 34]: −0.08
Active [9, 35]: N
Log reduction vs. untreated [9, 35]: −0.39
Active [9, 36]: N
Log reduction vs. untreated [9, 36]: −1.28
